Data from ChEMBL document CHEMBL5715954, “Silencing c-Myc translation as a therapeutic strategy through targeting PI3Kδ and CK1ε in hematological malignancies” (Blood, 2017).

Columns and labels:
Parameters in all cases: scale not given: the % may be the effect or the level left
[1] = target: T1, Mitogen-activated protein kinase 12 (Homo sapiens) (UniProt P53778); test: Inhibition of human P38g assessed as enzyme activity at 1 uM using myelin basic protein as substrate preincubated for 20 mins followed by [gamma-33P]-ATP addition and measured after 120 mins by radiometric Hot-SpotSM Kinase assay relative to control
T1 sequence (whole entry): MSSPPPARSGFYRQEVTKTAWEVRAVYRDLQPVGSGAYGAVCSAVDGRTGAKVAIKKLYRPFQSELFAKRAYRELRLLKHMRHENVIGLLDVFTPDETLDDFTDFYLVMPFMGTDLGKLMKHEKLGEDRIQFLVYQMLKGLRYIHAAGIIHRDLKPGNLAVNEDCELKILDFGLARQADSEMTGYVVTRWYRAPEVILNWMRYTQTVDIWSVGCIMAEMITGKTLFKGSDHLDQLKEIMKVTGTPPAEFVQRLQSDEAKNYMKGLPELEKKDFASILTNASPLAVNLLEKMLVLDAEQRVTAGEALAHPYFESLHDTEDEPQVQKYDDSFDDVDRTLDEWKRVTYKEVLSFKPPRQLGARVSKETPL

[2] = target: T2, cAMP-dependent protein kinase catalytic subunit PRKX (Homo sapiens) (UniProt P51817); test: Inhibition of human PRKX assessed as enzyme activity at 1 uM using LRRASLG as substrate preincubated for 20 mins followed by [gamma-33P]-ATP addition and measured after 120 mins by radiometric Hot-SpotSM Kinase assay relative to control
T2 sequence (whole entry): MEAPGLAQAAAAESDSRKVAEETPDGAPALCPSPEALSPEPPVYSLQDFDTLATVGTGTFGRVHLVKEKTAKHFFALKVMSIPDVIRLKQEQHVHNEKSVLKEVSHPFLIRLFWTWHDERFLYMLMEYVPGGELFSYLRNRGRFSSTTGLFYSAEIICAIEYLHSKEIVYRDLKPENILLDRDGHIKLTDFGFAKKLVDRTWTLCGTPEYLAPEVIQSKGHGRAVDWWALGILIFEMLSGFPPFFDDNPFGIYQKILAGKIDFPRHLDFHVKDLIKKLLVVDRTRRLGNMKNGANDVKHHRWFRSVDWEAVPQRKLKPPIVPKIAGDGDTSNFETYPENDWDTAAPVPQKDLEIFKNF

[3] = target: Ephrin type-A receptor 4 (Homo sapiens) (UniProt P54764); test: Inhibition of human EPHA4 assessed as enzyme activity at 1 uM using poly[Glu:Tyr] (4:1) as substrate preincubated for 20 mins followed by [gamma-33P]-ATP addition and measured after 120 mins by radiometric Hot-SpotSM Kinase assay relative to control
Ephrin type-A receptor 4 (Homo sapiens), sequence (P54764 whole entry): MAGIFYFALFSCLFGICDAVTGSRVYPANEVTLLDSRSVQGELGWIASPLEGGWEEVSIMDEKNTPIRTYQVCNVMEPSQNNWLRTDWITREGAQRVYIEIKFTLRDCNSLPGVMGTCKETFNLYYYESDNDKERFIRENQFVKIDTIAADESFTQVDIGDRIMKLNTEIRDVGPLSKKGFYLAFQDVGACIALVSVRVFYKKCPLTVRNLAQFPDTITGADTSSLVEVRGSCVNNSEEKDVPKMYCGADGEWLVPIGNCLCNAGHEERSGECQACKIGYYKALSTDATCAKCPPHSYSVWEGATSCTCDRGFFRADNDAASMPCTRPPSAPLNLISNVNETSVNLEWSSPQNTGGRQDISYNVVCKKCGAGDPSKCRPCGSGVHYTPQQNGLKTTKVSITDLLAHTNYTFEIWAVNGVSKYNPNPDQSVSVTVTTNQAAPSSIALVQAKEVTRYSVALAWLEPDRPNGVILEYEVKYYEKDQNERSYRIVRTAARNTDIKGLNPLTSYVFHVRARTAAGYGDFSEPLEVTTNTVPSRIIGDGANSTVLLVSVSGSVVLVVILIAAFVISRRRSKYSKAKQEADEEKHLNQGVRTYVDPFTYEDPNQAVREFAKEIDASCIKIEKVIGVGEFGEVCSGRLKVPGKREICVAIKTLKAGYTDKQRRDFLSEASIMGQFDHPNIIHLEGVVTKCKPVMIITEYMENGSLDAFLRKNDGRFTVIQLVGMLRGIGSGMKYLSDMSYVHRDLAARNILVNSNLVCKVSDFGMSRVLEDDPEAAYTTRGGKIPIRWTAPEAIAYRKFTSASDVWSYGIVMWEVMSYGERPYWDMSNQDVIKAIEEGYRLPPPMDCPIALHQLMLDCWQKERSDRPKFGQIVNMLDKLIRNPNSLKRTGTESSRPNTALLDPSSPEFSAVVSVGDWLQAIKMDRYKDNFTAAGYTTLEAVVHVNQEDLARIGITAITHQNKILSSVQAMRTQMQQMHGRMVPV

[4] = target: Protein kinase C theta type (Homo sapiens) (UniProt Q04759); test: Inhibition of human PKCtheta assessed as enzyme activity at 1 uM using ERMRPRKRQGSVRRRV as substrate preincubated for 20 mins followed by [gamma-33P]-ATP addition and measured after 120 mins by radiometric Hot-SpotSM Kinase assay relative to control
Protein kinase C theta type (Homo sapiens), sequence (Q04759 whole entry, looked up): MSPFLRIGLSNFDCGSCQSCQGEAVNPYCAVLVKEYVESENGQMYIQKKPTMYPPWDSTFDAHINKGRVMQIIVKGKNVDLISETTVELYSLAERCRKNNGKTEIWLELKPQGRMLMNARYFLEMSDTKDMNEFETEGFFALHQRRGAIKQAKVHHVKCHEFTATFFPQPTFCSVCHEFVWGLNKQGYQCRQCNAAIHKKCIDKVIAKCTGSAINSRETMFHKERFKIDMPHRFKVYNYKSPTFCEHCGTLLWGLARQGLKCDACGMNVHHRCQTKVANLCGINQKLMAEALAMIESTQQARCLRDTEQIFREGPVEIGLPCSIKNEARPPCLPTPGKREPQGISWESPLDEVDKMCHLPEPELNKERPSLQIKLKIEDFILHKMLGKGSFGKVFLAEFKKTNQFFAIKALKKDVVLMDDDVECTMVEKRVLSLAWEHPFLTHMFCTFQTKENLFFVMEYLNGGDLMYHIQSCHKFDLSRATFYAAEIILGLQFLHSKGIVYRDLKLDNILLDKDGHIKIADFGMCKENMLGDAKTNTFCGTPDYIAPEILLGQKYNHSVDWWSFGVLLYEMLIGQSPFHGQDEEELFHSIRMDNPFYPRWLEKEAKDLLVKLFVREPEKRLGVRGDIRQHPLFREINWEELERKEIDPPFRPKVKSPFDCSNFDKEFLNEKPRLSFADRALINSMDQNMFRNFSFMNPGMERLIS

[5] = target: T3, Protein kinase C epsilon type (Homo sapiens) (UniProt Q02156); test: Inhibition of human PKCepsilon assessed as enzyme activity at 1 uM using ERMRPRKRQGSVRRRV as substrate preincubated for 20 mins followed by [gamma-33P]-ATP addition and measured after 120 mins by radiometric Hot-SpotSM Kinase assay relative to control
T3 sequence (whole entry): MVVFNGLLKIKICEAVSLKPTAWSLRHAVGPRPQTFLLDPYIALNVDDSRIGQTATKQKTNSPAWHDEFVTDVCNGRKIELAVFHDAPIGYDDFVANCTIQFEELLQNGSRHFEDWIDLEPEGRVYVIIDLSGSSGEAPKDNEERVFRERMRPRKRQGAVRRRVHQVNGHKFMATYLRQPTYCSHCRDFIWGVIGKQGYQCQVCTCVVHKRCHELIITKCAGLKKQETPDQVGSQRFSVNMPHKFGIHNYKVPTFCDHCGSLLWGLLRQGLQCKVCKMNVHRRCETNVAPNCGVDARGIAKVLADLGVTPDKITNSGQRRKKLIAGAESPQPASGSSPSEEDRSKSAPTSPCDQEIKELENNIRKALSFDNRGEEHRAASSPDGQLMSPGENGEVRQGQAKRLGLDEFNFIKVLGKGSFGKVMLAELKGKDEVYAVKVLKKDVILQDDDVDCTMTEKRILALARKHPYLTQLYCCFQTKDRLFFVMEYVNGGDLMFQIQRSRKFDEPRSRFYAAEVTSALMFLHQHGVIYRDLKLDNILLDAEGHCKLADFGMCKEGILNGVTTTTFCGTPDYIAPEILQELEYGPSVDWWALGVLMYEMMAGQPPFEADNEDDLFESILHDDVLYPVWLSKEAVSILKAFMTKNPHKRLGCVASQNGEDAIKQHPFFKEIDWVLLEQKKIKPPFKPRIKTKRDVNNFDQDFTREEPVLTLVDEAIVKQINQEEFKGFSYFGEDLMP

[6] = target: Serine/threonine-protein kinase WNK2 (Homo sapiens) (UniProt Q9Y3S1); test: Inhibition of human WNK2 assessed as enzyme activity at 1 uM using myelin basic protein as substrate preincubated for 20 mins followed by [gamma-33P]-ATP addition and measured after 120 mins by radiometric Hot-SpotSM Kinase assay relative to control
Serine/threonine-protein kinase WNK2 (Homo sapiens), sequence (Q9Y3S1 whole entry): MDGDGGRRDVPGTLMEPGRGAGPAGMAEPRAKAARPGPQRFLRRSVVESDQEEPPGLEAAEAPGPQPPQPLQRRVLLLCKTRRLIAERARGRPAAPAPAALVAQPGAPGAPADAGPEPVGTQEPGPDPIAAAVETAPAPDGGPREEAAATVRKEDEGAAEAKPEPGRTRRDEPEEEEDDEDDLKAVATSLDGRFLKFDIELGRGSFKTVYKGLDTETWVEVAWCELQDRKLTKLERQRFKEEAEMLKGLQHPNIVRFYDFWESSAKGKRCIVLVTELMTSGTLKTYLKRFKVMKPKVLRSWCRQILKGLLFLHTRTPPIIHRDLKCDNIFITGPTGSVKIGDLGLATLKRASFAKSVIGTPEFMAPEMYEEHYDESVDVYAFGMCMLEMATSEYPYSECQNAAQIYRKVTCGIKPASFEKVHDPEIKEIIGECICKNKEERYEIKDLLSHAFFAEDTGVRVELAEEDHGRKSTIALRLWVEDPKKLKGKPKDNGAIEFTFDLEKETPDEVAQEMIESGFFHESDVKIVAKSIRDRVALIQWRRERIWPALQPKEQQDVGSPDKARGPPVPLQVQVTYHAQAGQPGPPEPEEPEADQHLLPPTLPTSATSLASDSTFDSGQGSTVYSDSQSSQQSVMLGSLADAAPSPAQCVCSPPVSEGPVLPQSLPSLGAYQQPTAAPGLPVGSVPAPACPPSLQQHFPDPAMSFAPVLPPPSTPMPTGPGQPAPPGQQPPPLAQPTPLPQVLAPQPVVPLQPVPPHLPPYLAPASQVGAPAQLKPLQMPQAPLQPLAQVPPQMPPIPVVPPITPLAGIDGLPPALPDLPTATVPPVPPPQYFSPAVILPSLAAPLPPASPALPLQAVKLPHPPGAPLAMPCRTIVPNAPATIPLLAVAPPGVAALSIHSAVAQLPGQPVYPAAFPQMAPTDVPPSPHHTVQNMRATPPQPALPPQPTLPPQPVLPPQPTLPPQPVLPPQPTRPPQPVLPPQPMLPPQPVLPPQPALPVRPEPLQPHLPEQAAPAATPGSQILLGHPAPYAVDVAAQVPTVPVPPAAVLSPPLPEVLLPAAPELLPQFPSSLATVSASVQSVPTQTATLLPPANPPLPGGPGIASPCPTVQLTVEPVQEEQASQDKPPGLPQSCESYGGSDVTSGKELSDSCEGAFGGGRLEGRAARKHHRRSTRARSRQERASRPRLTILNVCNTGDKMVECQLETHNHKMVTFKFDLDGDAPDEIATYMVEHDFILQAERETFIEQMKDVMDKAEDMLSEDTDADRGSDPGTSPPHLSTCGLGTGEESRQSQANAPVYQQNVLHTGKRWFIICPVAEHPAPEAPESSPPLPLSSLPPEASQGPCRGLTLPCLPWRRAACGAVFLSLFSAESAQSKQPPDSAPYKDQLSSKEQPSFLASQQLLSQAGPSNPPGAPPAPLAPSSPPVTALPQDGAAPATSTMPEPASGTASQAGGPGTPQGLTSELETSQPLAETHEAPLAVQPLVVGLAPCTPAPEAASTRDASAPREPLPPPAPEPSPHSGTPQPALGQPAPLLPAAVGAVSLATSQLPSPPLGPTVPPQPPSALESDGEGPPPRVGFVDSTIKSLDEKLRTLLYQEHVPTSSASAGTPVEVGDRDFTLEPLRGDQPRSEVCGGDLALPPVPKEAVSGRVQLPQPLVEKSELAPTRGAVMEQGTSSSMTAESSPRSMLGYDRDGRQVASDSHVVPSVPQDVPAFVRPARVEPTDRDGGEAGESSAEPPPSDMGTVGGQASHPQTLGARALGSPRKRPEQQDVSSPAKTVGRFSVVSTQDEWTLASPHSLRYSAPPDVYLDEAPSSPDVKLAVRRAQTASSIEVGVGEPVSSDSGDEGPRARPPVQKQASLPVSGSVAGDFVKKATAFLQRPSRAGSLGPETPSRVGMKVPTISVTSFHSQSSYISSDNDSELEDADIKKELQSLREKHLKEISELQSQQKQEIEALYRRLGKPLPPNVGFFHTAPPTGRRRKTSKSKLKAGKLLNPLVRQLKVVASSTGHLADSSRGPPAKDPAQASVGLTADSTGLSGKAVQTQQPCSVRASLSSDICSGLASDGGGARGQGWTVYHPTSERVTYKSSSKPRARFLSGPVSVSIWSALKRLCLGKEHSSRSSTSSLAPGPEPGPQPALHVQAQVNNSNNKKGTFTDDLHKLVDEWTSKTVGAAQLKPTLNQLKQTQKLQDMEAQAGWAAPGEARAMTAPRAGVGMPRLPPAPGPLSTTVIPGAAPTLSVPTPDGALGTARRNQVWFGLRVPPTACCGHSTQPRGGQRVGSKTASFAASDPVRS

[7] = target: T4, Homeodomain-interacting protein kinase 4 (Homo sapiens) (UniProt Q8NE63); test: Inhibition of human HIPK4 assessed as enzyme activity at 1 uM using myelin basic protein as substrate preincubated for 20 mins followed by [gamma-33P]-ATP addition and measured after 120 mins by radiometric Hot-SpotSM Kinase assay relative to control
T4 sequence (whole entry): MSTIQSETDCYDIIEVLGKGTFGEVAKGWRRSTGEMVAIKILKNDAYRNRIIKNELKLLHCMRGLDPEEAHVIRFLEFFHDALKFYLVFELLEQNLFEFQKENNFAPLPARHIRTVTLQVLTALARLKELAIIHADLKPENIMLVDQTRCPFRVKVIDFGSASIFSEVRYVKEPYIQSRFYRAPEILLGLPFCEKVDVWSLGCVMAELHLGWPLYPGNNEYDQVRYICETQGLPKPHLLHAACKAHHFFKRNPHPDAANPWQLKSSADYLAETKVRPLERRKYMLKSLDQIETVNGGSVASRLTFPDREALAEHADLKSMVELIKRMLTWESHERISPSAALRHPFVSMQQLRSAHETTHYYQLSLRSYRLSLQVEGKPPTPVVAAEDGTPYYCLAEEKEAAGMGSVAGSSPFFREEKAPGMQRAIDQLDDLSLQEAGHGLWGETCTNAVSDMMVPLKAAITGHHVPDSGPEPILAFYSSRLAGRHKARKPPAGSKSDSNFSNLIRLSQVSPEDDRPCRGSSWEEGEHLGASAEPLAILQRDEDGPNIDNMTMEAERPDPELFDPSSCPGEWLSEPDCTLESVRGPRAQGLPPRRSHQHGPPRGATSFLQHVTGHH

[8] = target: Cyclin-dependent kinase 5/CDK5 activator 1 (Homo sapiens) (UniProt Q00535+Q15078); test: Inhibition of human CDK5/p25 assessed as enzyme activity at 1 uM using RB Protein as substrate preincubated for 20 mins followed by [gamma-33P]-ATP addition and measured after 120 mins by radiometric Hot-SpotSM Kinase assay relative to control; format: protein-complex assay
Cyclin-dependent kinase 5/CDK5 activator 1 (Homo sapiens), sequence (Q00535 whole entry): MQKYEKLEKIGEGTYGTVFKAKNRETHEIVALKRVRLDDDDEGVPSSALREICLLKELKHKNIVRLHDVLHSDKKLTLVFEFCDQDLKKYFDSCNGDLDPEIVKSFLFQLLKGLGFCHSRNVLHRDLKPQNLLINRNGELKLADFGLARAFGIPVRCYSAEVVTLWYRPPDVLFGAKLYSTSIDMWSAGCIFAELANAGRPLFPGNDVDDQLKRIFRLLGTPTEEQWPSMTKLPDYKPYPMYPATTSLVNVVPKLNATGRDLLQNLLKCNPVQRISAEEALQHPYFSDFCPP
Cyclin-dependent kinase 5/CDK5 activator 1 (Homo sapiens), sequence (Q15078 99-307 partner limits assumed): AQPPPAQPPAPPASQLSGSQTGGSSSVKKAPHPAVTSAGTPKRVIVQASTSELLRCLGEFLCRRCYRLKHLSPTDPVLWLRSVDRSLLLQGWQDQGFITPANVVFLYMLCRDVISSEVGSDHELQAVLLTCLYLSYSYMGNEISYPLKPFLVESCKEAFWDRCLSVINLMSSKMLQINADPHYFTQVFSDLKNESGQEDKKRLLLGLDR

| Compound | Activity [1] | Activity [2] | Activity [3] | Activity [4] | Activity [5] | Activity [6] | Activity [7] | Activity [8] |
| --- | --- | --- | --- | --- | --- | --- | --- | --- |
| CC[C@H](Nc1ncnc2[nH]cnc12)c1nc2cccc(F)c2c(=O)n1-c1ccccc1 | 96.8% | 97.6% | 93.8% | 109% | 108% | 92.3% | 92.9% | 99.8% |
| C[C@H](Nc1ncnc2nc[nH]c12)c1cc2cccc(Cl)c2c(=O)n1-c1ccccc1 | 98.2% | 98.6% | 87.9% | 112% | 107% | 90.5% | 98.9% | 92.7% |
| CC(C)Oc1ccc(-c2nn([C@@H](C)c3oc4ccc(F)cc4c(=O)c3-c3cccc(F)c3)c3ncnc(N)c23)cc1F [UMBRALISIB] | 96.4% | 90.8% | 85.9% | 106% | 109% | 82.2% | 113% | 90.3% |
